# Measured values published in publication doi:10.1101/2024.04.22.590490v1 (biorxiv, 2024).
# Key:
# GSK-3β = GSK-3β (Homo sapiens, UniProt P49841); test: ADP-Glo luminescent kinase assay; type: biochemical
# GSK-3α = GSK-3α (Homo sapiens, UniProt P49840); test: ADP-Glo luminescent kinase assay; type: biochemical
# Sequence of GSK-3α (P49840 2-483): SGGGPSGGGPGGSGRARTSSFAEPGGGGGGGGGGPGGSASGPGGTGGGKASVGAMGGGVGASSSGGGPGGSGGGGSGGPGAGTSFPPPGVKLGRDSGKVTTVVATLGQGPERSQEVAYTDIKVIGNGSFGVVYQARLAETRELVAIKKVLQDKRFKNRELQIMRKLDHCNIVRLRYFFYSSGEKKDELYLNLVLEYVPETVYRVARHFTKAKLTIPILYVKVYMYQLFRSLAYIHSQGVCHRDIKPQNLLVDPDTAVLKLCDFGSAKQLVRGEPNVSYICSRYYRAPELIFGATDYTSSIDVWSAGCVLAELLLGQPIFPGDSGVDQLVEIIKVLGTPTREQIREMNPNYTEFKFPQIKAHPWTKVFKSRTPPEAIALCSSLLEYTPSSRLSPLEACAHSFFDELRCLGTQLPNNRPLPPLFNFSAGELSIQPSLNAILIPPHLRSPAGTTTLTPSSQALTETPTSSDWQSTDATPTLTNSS
# Sequence of GSK-3β (P49841 whole entry): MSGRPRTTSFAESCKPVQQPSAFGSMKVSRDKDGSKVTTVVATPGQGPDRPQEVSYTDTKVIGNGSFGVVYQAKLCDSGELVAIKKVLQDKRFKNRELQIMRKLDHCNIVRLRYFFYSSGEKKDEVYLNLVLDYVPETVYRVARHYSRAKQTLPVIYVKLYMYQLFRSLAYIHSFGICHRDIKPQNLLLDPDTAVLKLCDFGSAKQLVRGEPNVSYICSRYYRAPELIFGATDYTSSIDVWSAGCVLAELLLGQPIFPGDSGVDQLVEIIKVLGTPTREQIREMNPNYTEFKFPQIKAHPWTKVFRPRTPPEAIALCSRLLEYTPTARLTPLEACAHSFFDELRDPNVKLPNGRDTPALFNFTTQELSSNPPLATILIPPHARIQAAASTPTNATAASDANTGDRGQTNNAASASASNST
SMILES,IC50 (GSK-3β) [µM],IC50 (GSK-3α) [µM]
CC(C)=CCc1cc2c(cc1O)oc(=O)c1c3ccc(O)cc3oc21 [Psoralidin],4.24,2.27
O=C(/C=C/c1ccc(O)c(O)c1)O[C@H](Cc1ccc(O)c(O)c1)C(=O)O [Rosmarinic acid],2.25,5.14
